5 compounds from patent publication US9980943B2, “Methods of treating muscular dystrophy” (BOARD OF REGENTS OF THE NEVADA SYSTEM OF HIGHER EDUCATION, …, priority 2013, dated 2018) can be followed below.

What all share (assay type): cell-based, mouse
The test system of experiment [1] is α7 integrin (LacZ reporter in α7βgal+/− myoblasts). Kind of experiment: Myoblast α7+/LacZ integrin FDG assay (Burkin assay in myoblasts, 96-well). Particulars: α7+/LacZ myoblasts, 96-well.
The subject of experiment [2] is α7 integrin (LacZ reporter in α7+/LacZ myotubes). Nature of the experiment: Myotube α7 integrin FDG assay (Burkin assay in myotubes, 96-well). As to conditions: myotubes.
In experiment [3] the test system is β-galactosidase in CMV-LacZ C2C12 myotubes. Nature of the experiment: CMV-LacZ secondary screen in C2C12 myotubes (β-Gal stabilizing assay). As to conditions: for CMV-LACZ in Myotubes (β-galactosidase activity relative to DMSO): CMV-LacZ C2C12 myotubes, 96-well format. Summed up:
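β-Gal level was the read-out, measured in a clonal C2C12 line expressing LacZ from a CMV promoter. Dose-response curves used six concentrations, 0.5 μM up to 40 μM, with duplicate points.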

The structures appear in SMILES notation.

Regarding `O=S(=O)(NCC(c1ccco1)N1CCOCC1)c1ccc(Cl)cc1` (centres unmarked) [MLS000724709-01], the “Burkin Assay in Myoblasts, value relative to DMSO” value in experiment [1] (0.5 uM) worked out at 0.9899; in experiment [1] (1 uM), 0.9554; in experiment [1] (5 uM), 0.7389; in experiment [1] (10 uM), 0.779; in experiment [1] (20 uM) it was 0.486; in experiment [1] (40 uM), 0.5536. In addition, the “Burkin Assay in Myotubes (signal relative to DMSO)” value in experiment [2] (0.5 uM) was 0.9961; in experiment [2] (1 uM) it was 1.467; in experiment [2] (5 uM), 1.04; in experiment [2] (10 uM) it was 1.002; in experiment [2] (20 uM), 0.885; in experiment [2] (40 uM), 0.9768. Besides, the “CMV-LACZ in Myotubes (β-galactosidase activity relative to DMSO)” value in experiment [3] (5 uM) stood at 0.8422; in experiment [3] (10 uM), 0.8828; in experiment [3] (20 uM), 1.054; in experiment [3] (40 uM), 1.125.

Regarding `CCCS(=O)(=O)N1CCCC(C(=O)c2cccc(Cl)c2)C1` (centres unmarked) [MLS000862690-01], the “Burkin Assay in Myoblasts, value relative to DMSO” value in experiment [1] (0.5 uM) was 1.029; in experiment [1] (1 uM), 1.027; in experiment [1] (5 uM), 1.009; in experiment [1] (10 uM) it was 1.004; in experiment [1] (20 uM), 0.8717; in experiment [1] (40 uM) it was 0.9753. The “Burkin Assay in Myotubes (signal relative to DMSO)” value in experiment [2] (0.5 uM) was 1.125; in experiment [2] (1 uM), 0.9576; in experiment [2] (5 uM), 0.5941; in experiment [2] (10 uM), 0.9481; in experiment [2] (20 uM), 1.0131; in experiment [2] (40 uM) it was 1.0763. In addition, the “CMV-LACZ in Myotubes, signal relative to DMSO” value turned out to be 0.8684 in experiment [3] (5 uM, C2C12 CMV-LacZ myotubes, fold relative to DMSO); 0.8943 in experiment [3] (10 uM, C2C12 CMV-LacZ myotubes, fold relative to DMSO); 0.9323 in experiment [3] (20 uM, C2C12 CMV-LacZ myotubes, fold relative to DMSO); 1.018 in experiment [3] (40 uM, C2C12 CMV-LacZ myotubes, fold relative to DMSO).

As for `CN(C)S(=O)(=O)c1ccc(C(=O)Nc2nc3ccccc3[nH]2)cc1` [MLS000774940-01], the “Burkin Assay in Myoblasts, value relative to DMSO” value in experiment [1] (0.5 uM) is reported as 0.9309; in experiment [1] (1 uM), 0.8928; in experiment [1] (5 uM), 1.095; in experiment [1] (10 uM), 1.043; in experiment [1] (20 uM), 0.858; in experiment [1] (40 uM) it was 0.7761. Moreover, the “Burkin Assay in Myotubes (signal relative to DMSO)” value in experiment [2] (0.5 uM) is on record as 0.9469; in experiment [2] (1 uM), 0.9777; in experiment [2] (5 uM), 1.01; in experiment [2] (10 uM), 0.9908; in experiment [2] (20 uM) it was 1.084; in experiment [2] (40 uM) it was 0.878. Also, the “CMV-LACZ in Myotubes (β-galactosidase activity relative to DMSO)” value worked out at 0.954 in experiment [3] (5 uM), 0.8604 in experiment [3] (10 uM), 1.171 in experiment [3] (20 uM) and 1.005 in experiment [3] (40 uM).

With `S=c1[nH]nc(Cn2cnc3ccccc32)n1-c1ccccc1` [MLS000707281-01], the “Burkin Assay in Myoblasts, value relative to DMSO” value in experiment [1] (0.5 uM) was found to be 0.9507; in experiment [1] (1 uM) it was 0.9756; in experiment [1] (5 uM), 0.8935; in experiment [1] (10 uM), 0.8854; in experiment [1] (20 uM), 0.8359; in experiment [1] (40 uM) it was 0.7969. Further, the “Burkin Assay in Myotubes (signal relative to DMSO)” value was found to be 1.011 in experiment [2] (0.5 uM); 0.6537 in experiment [2] (1 uM); 1.059 in experiment [2] (5 uM); 0.7505 in experiment [2] (10 uM); 1.156 in experiment [2] (20 uM); 1.141 in experiment [2] (40 uM). Moreover, the “CMV-LACZ in Myotubes (β-galactosidase activity relative to DMSO)” value in experiment [3] (5 uM) was determined as 0.8706; in experiment [3] (10 uM), 0.9255; in experiment [3] (20 uM) it was 0.9474; in experiment [3] (40 uM), 0.9526.

In the case of `O=c1nc(C2CCN(S(=O)(=O)c3ccc4c(c3)OCCO4)CC2)nc2n(Cc3c(F)cccc3Cl)[nH]nc1-2` [MLS001223482-01], the fold induction at 0.5 µM came out at 1.06 in experiment [1] (Mus musculus, Myoblast, 48 h, 0.5 uM, read-out: Burkin Assay in Myoblasts, signal relative to DMSO) and 1.06 in experiment [2] (Mus musculus, Myotube, 0.5 uM, read-out: Burkin Assay in Myotubes, α7 integrin LacZ reporter signal relative to DMSO). Further, the fold induction at 1 µM in experiment [1] (Mus musculus, Myoblast, 48 h, 1 uM, read-out: Burkin Assay in Myoblasts, signal relative to DMSO) amounted to 1.09; in experiment [2] (Mus musculus, Myotube, 1 uM, read-out: Burkin Assay in Myotubes, α7 integrin LacZ reporter signal relative to DMSO) it was 1.15. The fold induction at 5 µM in experiment [1] (Mus musculus, Myoblast, 48 h, 5 uM, read-out: Burkin Assay in Myoblasts, signal relative to DMSO) is 1.01; in experiment [2] (Mus musculus, Myotube, 5 uM, read-out: Burkin Assay in Myotubes, α7 integrin LacZ reporter signal relative to DMSO), 1.27; in experiment [3] (Mus musculus, 5 uM, C2C12 CMV-LacZ myotubes, fold relative to DMSO, read-out: CMV-LACZ in Myotubes, signal relative to DMSO), 0.907. The fold induction at 10 µM in experiment [1] (Mus musculus, Myoblast, 48 h, 10 uM, read-out: Burkin Assay in Myoblasts, signal relative to DMSO) was 1.02; in experiment [2] (Mus musculus, Myotube, 10 uM, read-out: Burkin Assay in Myotubes, α7 integrin LacZ reporter signal relative to DMSO) it was 1.53; in experiment [3] (Mus musculus, 10 uM, C2C12 CMV-LacZ myotubes, fold relative to DMSO, read-out: CMV-LACZ in Myotubes, signal relative to DMSO), 0.793. Besides, the fold induction at 20 µM in experiment [1] (Mus musculus, Myoblast, 48 h, 20 uM, read-out: Burkin Assay in Myoblasts, signal relative to DMSO) came out at 1.29; in experiment [2] (Mus musculus, Myotube, 20 uM, read-out: Burkin Assay in Myotubes, α7 integrin LacZ reporter signal relative to DMSO) it was 1.13; in experiment [3] (Mus musculus, 20 uM, C2C12 CMV-LacZ myotubes, fold relative to DMSO, read-out: CMV-LACZ in Myotubes, signal relative to DMSO), 0.858. In addition, the fold induction at 40 µM came to 0.98 in experiment [1] (Mus musculus, Myoblast, 48 h, 40 uM, read-out: Burkin Assay in Myoblasts, signal relative to DMSO); 0.967 in experiment [2] (Mus musculus, Myotube, 40 uM, read-out: Burkin Assay in Myotubes, α7 integrin LacZ reporter signal relative to DMSO); 0.809 in experiment [3] (Mus musculus, 40 uM, C2C12 CMV-LacZ myotubes, fold relative to DMSO, read-out: CMV-LACZ in Myotubes, signal relative to DMSO).
